# From patent US5760235A, “Anticoagulant peptide derivatives and pharmaceutical compositions containing the same as well as a process for preparation thereof” (Gyogyszerkutato Intezet Kft., priority 1992, dated 1998)
# Experiments:
# Set-up in all cases: unit not given here
# citrated blood plasma [1] = experiment: In vitro thrombin time (TT), citrated blood plasma; type: biochemical, human
# Method: (§1) The antithrombin activity of the compounds of general formula (I) was determined by the usual method [Bagdy et al.: Thromb Haemostas 67, 325-330 (1992)] by measuring whole blood clotting time (WBCT), thrombin time (TT) and activated partial thromboplastin time (APTT). The in vitro activity of some compounds of the invention assayed on native human blood (non-anticoagulated clotting) (WBCT) and on citrated blood plasma (TT and APTT) is presented in Table 1.
# (§2) ^2 WBCT = whole blood clotting time, TT = thrombin time, APTT =
# (§3) activated partial thromboplastin time parameter. The figures represent
# (§4) concentrations of the compounds required to double the clotting time of
# (§5) native whole human blood or of citrated blood plasma.
# native whole human blood = experiment: In vitro whole blood clotting time (WBCT), native human blood; type: biochemical
# Method: as §1, §2, §3, §4, §5
# citrated blood plasma [2] = experiment: In vitro activated partial thromboplastin time (APTT), citrated blood plasma; type: biochemical, human
# Method: as §1, §2, §3, §4, §5
smiles,measurement,setting,value
"N=C(N)NCCC[C@@H](C=O)NC(=O)[C@@H]1CCCN1C(=O)[C@@H]1OCCc2ccccc21.N=C(N)NCCC[C@@H](C=O)NC(=O)[C@@H]1CCCN1C(=O)[C@@H]1OCCc2ccccc21.O=S(=O)(O)O [Example 1, D-Isochroman-1-carbonyl-L-prolyl-L-arginine aldehyde hemisulfate]",TT: concentration required to double the clotting time,citrated blood plasma [1],0.132
same,WBCT: concentration required to double the clotting time,native whole human blood,1.55
same,APTT: concentration required to double the clotting time,citrated blood plasma [2],0.60
